Like-named read-outs stand apart in the source and are kept apart here.
Experiments:
CYP2C9 = CYP2C9 (Homo sapiens, UniProt P11712); assay: CYP2C9 inhibition in human liver microsomes; details: for % 4 OH-diclofenac activity: HLM
in vitro = details: human, Caco-2, pH 7.4
CYP3A4 = target: T1, CYP3A4 (Homo sapiens, UniProt P08684); assay: CYP3A4 inhibition in human liver microsomes; assay type: in vitro ADME; details: HLM
T1 construct: from tissue; host or cells: human liver microsomes

[1] = tested on: wild-type (WT) Mtb Erdman; assay: microbe, parasite or virus in culture; assay type: cell-based, Mycobacterium tuberculosis; details: read-out: MABA mean IC50 ± SD
Mtb Erdman = assay type: cell-based, Mycobacterium tuberculosis
IMR-90 = details: for IMR-90 LD50: 48 h, MTT
Calu-3 cells = details: for Calu-3 LD50: 72 h, CellTiter-Glo, 50% decrease in cellular ATP, IMD salts; for Therapeutic index, LD50 in Calu-3 / MABA IC50: 72 h treatment, CTG assay
HEK 293 = details: for HEK 293 LD50: 48 h, MTT; for Therapeutic index, LD50 in HEK 293 / MABA IC50: 48 h treatment, MTT assay
Mtb biofilm formation = assay: microbe, parasite or virus in culture; assay type: cell-based; details: Mycobacterium tuberculosis, 504 h, read-out: Biofilm inhibition IC50
[2] = tested on: murine RAW 264.7 macrophages; assay: Cytotoxicity assay on murine macrophages; assay type: cell-based, mouse; details: 5 days, total cell number vs DMSO 1%
Procedure: Mouse macrophage RAW 264.7 cells (ATCC # TIB-71) were maintained in RPMI-1640 + GlutaMAX containing 10% heat-inactivated fetal bovine serum (FBS, 10270106, Gibco). Macrophages were harvested using Versene (15040033, LifeTechnologies).
For assay plate preparation, the lead compounds were diluted in DMSO (Sigma-Aldrich) to 10 mg/mL and dispensed in Echo-qualified 384-well low dead volume source plates using the Echo 550 Series Liquid Handler (Labcyte). The compounds were transferred to 384-well clear-bottom polystyrene assay plates (781091, Greiner Bio-One) using acoustic liquid handling technology. All samples were backfilled with DMSO.
The cellular suspension (50 μL containing 20,000 cells) was added to the 384-well assay plate and incubated for 5 days at 37 °C, 5% CO2. Macrophages were then stained with SYTO 60 dye (S11342, Molecular probes), followed by image acquisition and data analysis. Confocal images were recorded on an automated high-content fluorescence microscope (InCell 6500, Cytiva). A series of four pictures of each well were taken, and each image was then analyzed using the Columbus system to infer the total number of cells. Dose–response plots were generated for each compound using GraphPad Prism software.

Mtb katG^FS = assay type: cell-based, Mycobacterium tuberculosis
[3] = tested on: H37Rv-GFP Mtb in murine RAW 264.7 macrophages; assay type: cell-based, Mycobacterium tuberculosis
BEAS-2B = details: for BEAS-2B LD50: 48 h, MTT; for Therapeutic index, LD50 in BEAS-2B / MABA IC50: 48 h treatment, MTT assay
Caco-2 cells = details: membrane integrity control, 5 μM; cited from earlier work
[4] = Mycobacterium tuberculosis, ERDMAN

CYP2C9, sequence (P11712 whole entry): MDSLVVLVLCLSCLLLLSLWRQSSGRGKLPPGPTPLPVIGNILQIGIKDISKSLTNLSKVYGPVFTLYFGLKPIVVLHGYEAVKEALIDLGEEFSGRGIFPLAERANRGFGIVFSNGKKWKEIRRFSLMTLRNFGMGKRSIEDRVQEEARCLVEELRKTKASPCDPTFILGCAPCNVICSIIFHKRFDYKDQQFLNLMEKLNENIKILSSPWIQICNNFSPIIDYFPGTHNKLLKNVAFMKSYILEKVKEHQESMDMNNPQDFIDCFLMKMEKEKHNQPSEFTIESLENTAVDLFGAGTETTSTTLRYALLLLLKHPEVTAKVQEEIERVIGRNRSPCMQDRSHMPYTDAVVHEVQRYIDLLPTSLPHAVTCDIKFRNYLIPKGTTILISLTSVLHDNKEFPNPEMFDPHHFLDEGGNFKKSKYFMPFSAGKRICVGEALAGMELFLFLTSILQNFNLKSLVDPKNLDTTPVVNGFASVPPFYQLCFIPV
T1 sequence (P08684 whole entry): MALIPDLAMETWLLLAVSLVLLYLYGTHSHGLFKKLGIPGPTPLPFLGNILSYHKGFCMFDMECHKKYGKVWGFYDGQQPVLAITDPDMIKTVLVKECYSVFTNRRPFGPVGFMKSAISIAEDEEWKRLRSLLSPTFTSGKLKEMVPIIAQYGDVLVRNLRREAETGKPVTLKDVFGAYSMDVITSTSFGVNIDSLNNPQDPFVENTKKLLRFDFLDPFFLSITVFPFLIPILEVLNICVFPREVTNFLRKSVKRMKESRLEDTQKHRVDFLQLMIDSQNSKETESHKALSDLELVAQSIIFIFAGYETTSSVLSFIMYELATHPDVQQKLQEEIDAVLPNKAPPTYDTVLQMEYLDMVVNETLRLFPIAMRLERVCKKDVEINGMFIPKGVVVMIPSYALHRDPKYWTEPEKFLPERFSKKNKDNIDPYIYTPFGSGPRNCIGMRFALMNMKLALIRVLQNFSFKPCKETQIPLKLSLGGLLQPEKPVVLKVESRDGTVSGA

CC(C)(C)c1ccc(-c2nnc(SCc3cc(=O)n4c(c3C3CC3)SCC4C(=O)O)o2)cc1 (racemic) [Compound 8f, (±) 7-(((5-(4-(tert-Butyl)phenyl)-1,3,4-oxadiazol-2-yl)thio)methyl)-8-cyclopropyl-5-oxo-2,3-dihydro-5H-thiazolo[3,2-a]pyridine-3-carboxylic Acid]
IC50 (CYP2C9): 10 to 100 µM
% 4 OH-diclofenac activity (CYP2C9; 1 μM compound): 100 ± 2.7%
% 4 OH-diclofenac activity (CYP2C9; 10 μM compound): 93 ± 6.7%
% 4 OH-diclofenac activity (CYP2C9; 100 μM compound): 31 ± 3.6%
Papp A→B (in vitro): 3.3 ×10⁻⁶ cm/s
% 1OH-midazolam activity (CYP3A4; 1 μM compound): 108 ± 4.1%
% 6OH-testosterone activity (CYP3A4; 1 μM compound): 98 ± 4.0%
% 1OH-midazolam activity (CYP3A4; 10 μM compound): 117 ± 1.4%
% 6OH-testosterone activity (CYP3A4; 10 μM compound): 94 ± 5.8%
% 1OH-midazolam activity (CYP3A4; 100 μM compound): 84 ± 5.0%
% 6OH-testosterone activity (CYP3A4; 100 μM compound): 60 ± 1.9%
IC50 [1, 4]: 6.2 µM
IC50 [1]: 6.19 ± 0.67 µM

CC(C)(C)c1ccc(-n2cc(-c3cc(=O)n4c(c3C3CC3)SCC4C(=O)O)nn2)cc1 (racemic) [Compound 15d, (±) 7-(1-(4-(tert-Butyl)phenyl)-1H-1,2,3-triazol-4-yl)-8-cyclopropyl-5-oxo-2,3-dihydro-5H-thiazolo[3,2-a]pyridine-3-carboxylic Acid]
IC50 (CYP2C9): 1 to 10 µM
% 4 OH-diclofenac activity (CYP2C9; 1 μM compound): 83 ± 4.6%
% 4 OH-diclofenac activity (CYP2C9; 10 μM compound): 32.9 ± 1.0%
% 4 OH-diclofenac activity (CYP2C9; 100 μM compound): 2.61 ± 0.29%
Papp A→B at 2 µM (in vitro): 0.88 ×10⁻⁶ cm/s
% 1OH-midazolam activity (CYP3A4; 1 μM compound): 102 ± 1.4%
% 6OH-testosterone activity (CYP3A4; 1 μM compound): 105 ± 1.0%
% 1OH-midazolam activity (CYP3A4; 10 μM compound): 95 ± 2.7%
% 6OH-testosterone activity (CYP3A4; 10 μM compound): 101 ± 3.9%
% 1OH-midazolam activity (CYP3A4; 100 μM compound): 67 ± 1.5%
% 6OH-testosterone activity (CYP3A4; 100 μM compound): 75 ± 1.9%
IC50 [1, 4]: 5.67 ± 0.82 µM

O=C(O)C1CSc2c(C3CC3)c(-c3cc(-c4ccc5ccccc5c4)no3)cc(=O)n21 (racemic) [Compound 17h, (±) 8-Cyclopropyl-7-(3-(naphthalen-2-yl)isoxazol-5-yl)-5-oxo-2,3-dihydro-5H-thiazolo[3,2-a]pyridine-3-carboxylic Acid]
inhibition of OD600 of Mtb cultures in the presence of tyloxapol (Mtb Erdman): neither 17h nor 17j inhibited the OD600 of Mtb cultures
IMR-90 LD50 (IMR-90): 122.5 µM
Calu-3 LD50 (Calu-3 cells): >250 µM
Therapeutic index, LD50 in Calu-3 / MABA IC50 (Calu-3 cells): >355
HEK 293 LD50 (HEK 293): 101.6 µM
Therapeutic index, LD50 in HEK 293 / MABA IC50 (HEK 293): 144.5
IC50 (Mtb biofilm formation): 3.47 ± 1.21 µM
IC50 [1, 4]: 0.703 µM
IC50 [1]: 0.7 ± 0.05 µM
cytotoxicity for uninfected murine RAW 264.7 macrophages [2]: not cytotoxic
Mtb katG^FS CFU after 13 days, combination with INH (Mtb katG^FS): below the input dose
Mtb katG^FS CFU after 13 days, compound alone vs control (Mtb katG^FS): no difference in CFU
inhibition of intracellular Mtb replication in macrophages [3]: inhibited intracellular mycobacteria at concentrations lower than C10
BEAS-2B LD50 (BEAS-2B): 143.1 µM
Therapeutic index, LD50 in BEAS-2B / MABA IC50 (BEAS-2B): 203.5

O=C(O)C1CSc2c(C3CC3)c(-c3cc(-c4cccc5ccccc45)on3)cc(=O)n21 (racemic) [Compound 19a, (±) 8-Cyclopropyl-7-(5-(naphthalen-1-yl)isoxazol-3-yl)-5-oxo-2,3-dihydro-5H-thiazolo[3,2-a]pyridine-3-carboxylic Acid]
IC50 [1, 4]: 3.9 ± 1.43 µM

O=C(O)C1CSc2c(C3CC3)c(-c3cc(-c4cccc(C(F)(F)F)c4)on3)cc(=O)n21 (racemic) [Compound 19b, (±) 8-Cyclopropyl-5-oxo-7-(5-(3-(trifluoromethyl)phenyl)isoxazol-3-yl)-2,3-dihydro-5H-thiazolo[3,2-a]pyridine-3-carboxylic Acid]
IC50 [1, 4]: 5.09 ± 1.3 µM

O=C(O)C1CSc2c(C3CC3)c(Cc3cccc4ccccc34)cc(=O)n21 (stereo not shown) [Compound C10, reference compound]
IMR-90 LD50 (IMR-90): 147.1 µM
Therapeutic index, LD50 in IMR-90 / MABA IC50 (IMR-90; 48 h treatment, MTT assay): 10.1
Calu-3 LD50 (Calu-3 cells): 160.4 µM
Therapeutic index, LD50 in Calu-3 / MABA IC50 (Calu-3 cells): 11.1
HEK 293 LD50 (HEK 293): 151.7 µM
Therapeutic index, LD50 in HEK 293 / MABA IC50 (HEK 293): 10.5
IC50 (Mtb biofilm formation): 8.28 ± 3.23 µM
IC50 [1, 4]: 14.4 µM
IC50 [1]: 14.4 µM
cytotoxicity for uninfected murine RAW 264.7 macrophages [2]: not cytotoxic
Mtb katG^FS CFU after 13 days, combination with INH (Mtb katG^FS): did not inhibit the survival of Mtb katG^FS beyond the effect of INH alone
Mtb katG^FS CFU after 13 days, compound alone vs control (Mtb katG^FS): no difference in CFU
BEAS-2B LD50 (BEAS-2B): 146.2 µM
Therapeutic index, LD50 in BEAS-2B / MABA IC50 (BEAS-2B): 10.1

NNC(=O)c1ccncc1 [INH, isoniazid]
surviving Mtb katG^FS after 13 days of treatment (Mtb katG^FS): 8.09 × 10^8 CFU/mL

C[C@H](N[C@@H](CCc1ccccc1)C(=O)O)C(=O)N1CCC[C@H]1C(=O)O [enalaprilat]
Papp of enalaprilat for a tight monolayer (Caco-2 cells): < 1 × 10^–6 cm/s

Reference: publication PMC10461229 (Journal of Medicinal Chemistry, 2023)
